Article PMC3591448, “Profile of the GSK Published Protein Kinase Inhibitor Set Across ATP-Dependent and-Independent Luciferases: Implications for Reporter-Gene Assays” (PLoS ONE, 2013)
Like-named read-outs stand apart in the source and are kept apart here.

Experiments:
[1] = target: firefly luciferase, Photinus pyralis (FLuc) (Photinus pyralis, UniProt P08659); experiment: biochemical; format: biochemical; conditions: for FLuc Parameters Hill Coef: Hill equation fit of CRC; for Emax: response relative to PTC124 control inhibitor, negative = inhibition, read-out: FLuc Parameters Efficacy
Protocol: The bioluminescence outputs were measured by an EnVision reader (PerkinElmer, Wellesley, MA). Due to the relatively short luminescence duration of the RLuc assay, dispense time constants were set to match closely to the read time of the plate reader. As a result, each individual well was read with approximately the same time delay from reagent dispense to signal acquisition. See Table 1 for the 1536-well assay protocols.
(§1) Data from each assay was normalized plate-wise to corresponding intraplate controls as described previously, [17]. The same control data sets were also used for the calculation of Z′ factors from each assay. In all assays, wells containing DMSO were used as no-response controls. For the FLuc enzymatic assay, each compound-treated well on the plate was normalized to the average readings of n = 24 PTC124 treated wells and n = 48 DMSO wells from the same plate. Wells were scaled to a full range of DMSO and zero, and then normalized using the maximum response observed in the screen as 100% activity. For the RLuc enzymatic assay, n = 24 BTS treated wells for the positive control, n = 48 DMSO. MSR values were calculated using the cumulative potency differences of the de-interleaved duplicate control titrations from each plate as previously described. The normalized data from each assay plate set was corrected using DMSO-only treated assay plates read at the start and end of each assay run, and the resulting inter-plate titration data fit, using in-house software, to the standard Hill equation and dose-response curves automatically classified as described previously.
(§2) The curve classification scheme for assignment of resulting curve-fit data into CRC classes was according to Inglese et al. as follows: class 1 curves (far left) display two asymptotes, an inflection point, and r^2≥0.9; subclasses 1a vs. 1b are differentiated by full (>80%) vs. partial (≤80%) response. Class 2 curves (second from left) display a single left-hand asymptote and inflection point; subclasses 2a (or 2.1) and 2b (2.2) are differentiated by a max response and r^2, >80% and >0.9 or <80% and <0.9, respectively. Class 3 curves (second from right) have a single left-hand asymptote, no inflection point, and a response >3SD from the mean activity of the sample field.

TRKA = tested on: TRKA; design: method as in Wood, E.R., et al. 2004; conditions: ref Wood, E.R., et al. 2004; read-out: PKI IC50 (µM), TRKA; cited from earlier work
[2] = target: T1, Renilla luciferase (RLuc) (Renilla reniformis, UniProt P27652); experiment: RLuc enzymatic assay (purified enzyme, qHTS, 1536-well); format: biochemical; conditions: 1 nM RLuc, 5 µM coelenterazine-H
T1 sequence (P27652 1-311): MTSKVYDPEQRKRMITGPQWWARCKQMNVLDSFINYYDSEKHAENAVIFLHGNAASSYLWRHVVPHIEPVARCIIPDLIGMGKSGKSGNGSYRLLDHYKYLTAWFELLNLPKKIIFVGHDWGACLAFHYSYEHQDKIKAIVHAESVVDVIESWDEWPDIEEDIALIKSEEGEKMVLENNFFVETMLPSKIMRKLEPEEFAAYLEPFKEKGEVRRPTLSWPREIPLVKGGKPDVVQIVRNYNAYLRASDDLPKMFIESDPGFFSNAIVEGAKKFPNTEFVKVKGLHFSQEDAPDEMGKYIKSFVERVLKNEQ
Protocol: 1 µL of purified luciferase was then dispensed into each well for final concentrations 10 nM FLuc or 1 nM RLuc. The bioluminescence outputs were measured by an EnVision reader (PerkinElmer, Wellesley, MA). Due to the relatively short luminescence duration of the RLuc assay, dispense time constants were set to match closely to the read time of the plate reader. As a result, each individual well was read with approximately the same time delay from reagent dispense to signal acquisition. See Table 1 for the 1536-well assay protocols.
as §1, §2

JNK3 = tested on: JNK3; design: method as in Angell, R.M., et al. 2007; conditions: ref Angell, R.M., et al. 2007; read-out: PKI IC50 (µM), JNK3; cited from earlier work
LCK = tested on: LCK; design: method as in Bamborough, P., et al. 2007; conditions: ref Bamborough, P., et al. 2007; read-out: PKI IC50 (µM), LCK; cited from earlier work
GSK3β = conditions: ref Peat, A. J., et al., 2004; read-out: PKI IC50 (µM), GSK3β; cited from earlier work
[3] = 10 nM FLuc, 10 µM D-luciferin, 10 µM ATP, read-out: FLuc Parameters IC50
[4] = Figure 2b, representative structures of clusters, read-out: FLuc IC50
[5] = Figure 2b, representative structures of clusters
[6] = Figure 3, read-out: IC50 (FLuc)
[7] = Figure 4b, read-out: FLuc (IC50)

firefly luciferase, Photinus pyralis (FLuc), sequence (P08659 whole entry): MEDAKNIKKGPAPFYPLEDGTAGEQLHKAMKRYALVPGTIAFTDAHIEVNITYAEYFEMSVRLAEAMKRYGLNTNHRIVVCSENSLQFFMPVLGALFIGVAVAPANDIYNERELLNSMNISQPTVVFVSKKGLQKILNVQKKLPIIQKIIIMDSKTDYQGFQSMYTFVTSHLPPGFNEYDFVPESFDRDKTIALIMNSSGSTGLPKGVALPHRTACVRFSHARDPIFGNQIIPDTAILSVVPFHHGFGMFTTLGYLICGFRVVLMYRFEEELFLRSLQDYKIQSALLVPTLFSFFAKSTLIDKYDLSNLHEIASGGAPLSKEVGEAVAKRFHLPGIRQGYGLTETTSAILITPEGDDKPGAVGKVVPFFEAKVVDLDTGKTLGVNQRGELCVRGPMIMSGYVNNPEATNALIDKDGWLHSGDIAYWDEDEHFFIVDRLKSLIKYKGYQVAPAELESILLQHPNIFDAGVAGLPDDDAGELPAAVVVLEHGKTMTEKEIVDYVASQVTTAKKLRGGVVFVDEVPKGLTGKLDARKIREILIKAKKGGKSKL

| SMILES | IC50 [1, 3] | FLuc Parameters Hill Coef [1] | IC50 ([1]; Table 3, read-out: FLuc IC50) | Emax [1] | RLuc Curve Class [2] | IC50 [1, 6] | also measured |
| --- | --- | --- | --- | --- | --- | --- | --- |
| O=C1Nc2ccccc2/C1=C1\CCc2cc(O)ccc21 [GR105659X] | 5.17 µM | 1.01 | 5.17 µM | 103% | – | – | IC50 (TRKA): 0.006 µM |
| NS(=O)(=O)c1cccc(N/C=C2\C(=O)Nc3ccccc32)c1 [GW275616X] | – | – | – | – | – | – | IC50 [1, 4]: 18 µM |
| O=C1Nc2ccccc2/C1=C/Nc1ccc2[nH]c(=O)[nH]c2c1 [GW284408X] | 4.11 µM | 1.93 | 4.11 µM | 37.9% | 4 | – | IC50 (TRKA): 0.007 µM |
| CC(C)c1ccc2c(c1)NC(=O)C2=NNc1ccc(S(N)(=O)=O)cc1 [GW300653X] | – | – | – | – | – | – | FLuc IC50 [1, 5]: Inactive |
| c1ccc(Nc2ncc(-c3ccccc3)o2)cc1 [GW549390X] | 0.26 µM | 1.1 | 0.26 µM | 98.6% | 4 | – | – |
| CS(=O)(=O)CCNCc1coc(-c2ccc3ncnc(Nc4ccc(OCc5ccccc5)cc4)c3c2)c1 [GW566221A] | – | – | – | – | – | – | IC50 [1, 4]: 12 µM |
| CCN(CC)S(=O)(=O)c1ccc(OC)c(Nc2ncc(-c3ccccc3)o2)c1 [GW572401X] | – | – | – | – | – | > 20 µM | – |
| N#Cc1c(NC(=O)c2ccccc2F)sc2c1CCCC2 [GW572738X] | 0.82 µM | 1.66 | 0.82 µM | 82.6% | 4 | – | IC50 (JNK3): 0.4 µM |
| COc1ccc(Nc2ncc(-c3ccccc3)o2)cc1OC [GW575533A] | 5.8 µM | 1.17 | 5.8 µM | 90% | 4 | – | – |
| Cc1ccc(Nc2ccnc(Nc3cccc(C(N)=O)c3)n2)cc1O [GW575808A] | 1.46 µM | 1.54 | 1.46 µM | 106% | 4 | – | IC50 (LCK): 0.19 µM |
| COc1cc(/C=N/Nc2ncnc3[nH]ncc23)ccc1O [GW578748X] | 3.66 µM | 1.33 | 3.66 µM | 82.3% | 4 | 3.7 µM | IC50 (GSK3β): 3.16 µM |
| COC(=O)Nc1nc2ccc(Oc3ccc(NC(=O)Nc4cccc(Cl)c4)cc3)cc2[nH]1 [GW589961A] | – | – | – | – | – | > 30 µM | – |
| N#Cc1cccc(Nc2ncc(-c3ccccc3)o2)c1 [GW627834A] | 1.03 µM | 1.21 | 1.03 µM | 84.1% | 4 | – | IC50 [1, 4]: 1 µM |
| COc1cc(Nc2ncc(-c3ccccc3)o2)cc(OC)c1 [GW631581B] | 6.51 µM | 1.29 | 6.51 µM | 88.5% | 4 | – | – |
| Cc1cccc(Nc2ncc(-c3ccccc3)o2)c1 [GW632046X] | 0.58 µM | 1.11 | 0.58 µM | 104% | 4 | – | – |
| COc1cc(/C=N/Nc2ncnc3c2cnn3C(C)C)ccc1O [GW644007X] | 5.8 µM | 1.86 | 5.8 µM | 40.7% | 4 | – | IC50 (GSK3β): 2.51 µM |
| CCc1cccc(NC(=O)Nc2ccc(Oc3ccc4nc(NC(=O)OC)[nH]c4c3)cc2)c1 [GW673715X] | – | – | – | – | – | > 30 µM | – |
| COC(=O)Nc1nc2cc(Oc3ccc(NC(=O)Nc4cccc(Br)c4)cc3)ccc2[nH]1 [GW694234A] | – | – | – | – | – | > 30 µM | – |
| COC(=O)Nc1nc2cc(Oc3ccc(NC(=O)Nc4ccccc4)cc3)ccc2[nH]1 [GW694590A] | – | – | – | – | – | 14.6 µM | IC50 [1, 4]: 15 µM; IC50 [1, 7]: 14 µM |
| COC(=O)Nc1nc2ccc(Oc3ccc(NC(=O)Nc4cccc(C(=O)O)c4)cc3)cc2[nH]1 [GW701427A] | 0.12 µM | 1.69 | 0.12 µM | 102% | – | – | – |
| NC(=O)c1cccc(Nc2nccc(Nc3cccc(F)c3)n2)c1 [GW759710A] | 0.73 µM | 1.21 | 0.73 µM | 98.6% | 4 | – | IC50 (LCK): 3.3 µM |
| COc1cccc(-n2ncc3c(N/N=C/c4ccc(C(=O)NCCN(C)C)cc4)ncnc32)c1 [GW784307A] | – | – | – | – | – | 16 µM | – |
| COc1cccc(-n2ncc3c(N/N=C/c4ccncc4)ncnc32)c1 [GW784752X] | – | – | – | – | – | 6.5 µM | – |
| COc1cccc(-n2cnc3c(N/N=C/c4ccncc4)ncnc32)c1 [GW813360X] | – | – | – | – | – | 16 µM | – |
| COc1cccc(-c2c[nH]c3c(N/N=C/c4ccncc4)ncnc23)c1 [GW814408X] | – | – | – | – | – | – | IC50 [1, 4]: 6 µM; IC50 [1, 7]: 5.8 µM |
| COc1cccc(-n2ncc3c(N/N=C/c4ccc(F)cc4)ncnc32)c1 [GW817396X] | – | – | – | – | – | 33 µM | – |
| N#Cc1c(NC(=O)c2ccc(F)cc2)sc2c1CCCC2 [SB-347804] | 0.92 µM | 1.48 | 0.92 µM | 72.5% | 4 | – | IC50 (JNK3): 3.16 µM |
| O=C1NC(=O)C(c2ccc(Cl)cc2)=C1Nc1ccc(Cl)c(C(=O)O)c1 [SB-360741] | – | – | – | – | – | – | FLuc IC50 [1, 5]: inactive |
| COc1ccc(-c2ccc3c(NC(=O)C4CC4)n[nH]c3n2)cc1 [SB-711237] | 2.31 µM | 0.8 | 2.31 µM | 44.8% | 4 | – | – |
| O=C(Nc1n[nH]c2cc(-c3ccccc3)ccc12)C1CC1 [SB-732941] | – | – | – | – | – | – | IC50 [1, 4]: 18 µM |
